In patent US10702475B2, “Liposome containing compositions and their use in personal care and food products” (priority 2017, dated 2020):

Assay: Evaluation of polyglyceryl ester surfactants for structuring a liposome
Type: physicochemical
Conditions: class given by column head
Method: A series of polyglyceryl ester surfactants were evaluated to identify those capable of structuring a liposome. These reveal that liposome formation requires from 8 to 12 units of glycerol and a di-ester of C14-C18 fatty acid to establish a liposomal structure.

| Substance | structure formed by the surfactant (O/W emulsion, liposome or W/O emulsion) |
| --- | --- |
| Polyglyceryl-10 Dioleate | forms liposomes |
| Polyglyceryl-10 Mono/Dioleate | forms O/W emulsions |
